# How the values were obtained:
# human TREX1 = target: T1, human TREX1 (Homo sapiens, UniProt Q9NSU2); assay: hTREX1 Biochemical Assay (fluorescence, dsDNA substrate degradation); conditions: full length human TREX1, 4 h pre-incubation, 18 h reaction at 25° C.
# T1 construct: N-terminally His-Tev tagged full length human TREX1; made in house; host or cells: E. coli
# T1 sequence (Q9NSU2 1-314): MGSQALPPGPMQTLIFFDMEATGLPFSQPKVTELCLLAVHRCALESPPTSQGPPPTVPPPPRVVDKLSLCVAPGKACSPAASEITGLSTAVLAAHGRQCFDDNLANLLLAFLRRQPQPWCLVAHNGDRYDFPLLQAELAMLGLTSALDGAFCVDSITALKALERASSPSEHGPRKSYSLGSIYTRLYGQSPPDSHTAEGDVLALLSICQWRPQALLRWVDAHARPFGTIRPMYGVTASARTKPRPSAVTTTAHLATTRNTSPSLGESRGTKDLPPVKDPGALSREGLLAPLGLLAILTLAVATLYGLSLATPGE
# Method in brief: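 His-Tev-tagged full-length E. coli-expressed enzyme (4 pM final) preincubated with compound 4 h at 25° C., then 60 nM quenched-fluorophore dsDNA added in Tris pH 7.4, 5 mM MgCl2, 1% DMSO. After 18 h at 25° C., EDTA-quenched; fluorescence 615 nm (ex 570 nm); IC50 from four-parameter fit versus EDTA and no-inhibitor controls.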
# mouse TREX1 = target: T2, mouse TREX1 (Mus musculus, UniProt Q91XB0); assay: mTREX1 Biochemical Assay (fluorescence, dsDNA substrate degradation); conditions: full length mouse TREX1, 4 h pre-incubation, 18 h reaction at 25° C.
# T2 construct: N-terminally His-Tev tagged full length mouse TREX1; made in house; host or cells: E. coli
# T2 sequence (Q91XB0 1-314): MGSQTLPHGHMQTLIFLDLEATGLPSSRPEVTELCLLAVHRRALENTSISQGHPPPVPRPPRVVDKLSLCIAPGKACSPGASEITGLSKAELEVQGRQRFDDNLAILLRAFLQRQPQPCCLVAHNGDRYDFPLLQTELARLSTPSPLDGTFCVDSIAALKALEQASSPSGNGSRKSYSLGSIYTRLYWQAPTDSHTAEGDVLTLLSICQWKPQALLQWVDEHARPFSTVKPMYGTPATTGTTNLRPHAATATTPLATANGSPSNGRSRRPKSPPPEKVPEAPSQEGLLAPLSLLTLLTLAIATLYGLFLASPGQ
# Method in brief: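 Full-length His-Tev mouse TREX1 (E. coli) was preincubated with compound 4 h at 25 °C, then run 18 h at 25 °C. Finals were 6 pM enzyme, 60 nM TEX615/quencher dsDNA, 1% DMSO, pH 7.4 Tris with 5 mM MgCl2. After EDTA quench, fluorescence was read at 615 nm; IC50 by four-parameter fit against EDTA and no-inhibitor controls.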
# human TREX2 = target: T3, human TREX2 (Homo sapiens, UniProt Q9BQ50); assay: hTREX2 Biochemical Assay (selectivity hTREX1 vs hTREX2); conditions: biochemical selectivity for hTREX1 vs hTREX2
# T3 construct: human TREX2 (residues M44-A279, expressed in E. coli); made in house; host or cells: E. coli
# T3 sequence (Q9BQ50 44-279 isoform Q9BQ50-1): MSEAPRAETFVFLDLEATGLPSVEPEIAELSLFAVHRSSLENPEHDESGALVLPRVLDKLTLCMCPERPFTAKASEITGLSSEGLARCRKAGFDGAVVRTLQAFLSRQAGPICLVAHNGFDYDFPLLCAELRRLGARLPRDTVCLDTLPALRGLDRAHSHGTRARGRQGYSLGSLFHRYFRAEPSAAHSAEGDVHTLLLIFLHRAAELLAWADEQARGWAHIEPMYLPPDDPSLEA
# Method in brief: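 His-Tev-tagged human TREX2 (M44-A279, E. coli-expressed) preincubated with compound (10-point dose-response) for 4 h at 25 °C in Tris pH 7.4 buffer with 5 mM MgCl2. Reaction then run with 60 nM TEX615/quencher dsDNA and 50 pM enzyme (1% DMSO) for 18 h at 25 °C and EDTA-quenched. Fluorescence read at 615 nm (ex 570 nm); IC50 by four-parameter fit against pre-quenched and no-inhibitor controls.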
IC50 (human TREX1),IC50 (mouse TREX1),hTREX1 vs hTREX2 selectivity (human TREX2),Compound
> 100 nM,> 10 nM,A (A = <25 fold selective for hTREX1),"Cn1c([C@H](C(c2ccccc2)c2ccccc2)C(F)(F)F)nc(C(=O)Nc2cnoc2)c(O)c1=O (single isomer, unassigned) [Example 20 Isomer 2, 5-Hydroxy-N-(isoxazol-4-yl)-1-methyl-6-oxo-2-(1,1,1-trifluoro-3,3-diphenylpropan-2-yl)-1,6-dihydropyrimidine-4-carboxamide]"
10 to 100 nM,> 10 nM,C (C = >50 fold selective for hTREX1),"Cn1c([C@@H](C(c2ccccc2C#N)c2ccccc2C#N)C(F)(F)F)nc(C(=O)Nc2cnoc2)c(O)c1=O (single isomer, unassigned) [Example 21 Isomer 2, 2-(3,3-bis(2-cyanophenyl)-1,1,1-trifluoropropan-2-yl)-5-hydroxy-N-(isoxazol-4-yl)-1-methyl-6-oxo-1,6-dihydropyrimidine-4-carboxamide]"
> 100 nM,> 10 nM,A (A = <25 fold selective for hTREX1),"Cn1c(CC(c2ccccc2)c2ccccc2)nc(C(=O)Nc2cnoc2)c(O)c1=O [Example A, 2-(2,2-diphenylethyl)-5-hydroxy-N-(isoxazol-4-yl)-1-methyl-6-oxo-1,6-dihydropyrimidine-4-carboxamide]"
> 100 nM,> 10 nM,A (A = <25 fold selective for hTREX1),"Cn1c(C(C)(C)C(c2ccccc2)c2ccccc2)nc(C(=O)Nc2cnoc2)c(O)c1=O [Example B, 5-hydroxy-N-(isoxazol-4-yl)-1-methyl-2-(2-methyl-1,1-diphenylpropan-2-yl)-6-oxo-1,6-dihydropyrimidine-4-carboxamide]"

# More lines, now with the values behind:
Compound,IC50 (human TREX1),IC50 (mouse TREX1),hTREX1 vs hTREX2 selectivity (human TREX2)
"C[C@H](c1nc(C(=O)Nc2cnoc2)c(O)c(=O)n1C)[C@H](c1ccccc1)c1ccc(C(=O)N(C)C)cc1C#N (single isomer, unassigned) [Example 16 Isomer 3, 2-(1-(2-cyano-4-(dimethylcarbamoyl)phenyl)-1-phenylpropan-2-yl)-5-hydroxy-N-(isoxazol-4-yl)-1-methyl-6-oxo-1,6-dihydropyrimidine-4-carboxamide]",> 100 nM,> 10 nM,A (A = <25 fold selective for hTREX1)
"C[C@H](c1nc(C(=O)Nc2cnoc2)c(O)c(=O)n1C)[C@H](c1ccccc1)c1ccc(C(=O)N(C)C)cc1C#N (single isomer, unassigned) [Example 16 Isomer 4, 2-(1-(2-cyano-4-(dimethylcarbamoyl)phenyl)-1-phenylpropan-2-yl)-5-hydroxy-N-(isoxazol-4-yl)-1-methyl-6-oxo-1,6-dihydropyrimidine-4-carboxamide]",< 1 nM,< 1 nM,B (B = 25 to 50 fold selective for hTREX1)
"CC(c1nc(C(=O)Nc2cnoc2)c(O)c(=O)n1C)C(c1ccccc1)c1cc(C(=O)N(C)C)ccc1C#N (single isomer, unassigned) [Example 17 Isomer 1]",10 to 100 nM,> 10 nM,A (A = <25 fold selective for hTREX1)
"Cn1c([C@@H](CF)C(c2ccccc2)c2ccccc2)nc(C(=O)Nc2cnoc2)c(O)c1=O (single isomer, unassigned) [Example 18 Isomer 1, 2-(3-fluoro-1,1-diphenylpropan-2-yl)-5-hydroxy-N-(isoxazol-4-yl)-1-methyl-6-oxo-1,6-dihydropyrimidine-4-carboxamide]",10 to 100 nM,> 10 nM,A (A = <25 fold selective for hTREX1)
"Cn1c(C(F)(F)C(c2ccccc2)c2ccccc2)nc(C(=O)Nc2cnoc2)c(O)c1=O [Example 19, 2-(1,1-difluoro-2,2-diphenylethyl)-5-hydroxy-N-(isoxazol-4-yl)-1-methyl-6-oxo-1,6-dihydropyrimidine-4-carboxamide]",10 to 100 nM,> 10 nM,B (B = 25 to 50 fold selective for hTREX1)

# Reference: patent US20240262814A1, “MODULATORS OF TREX1” (Constellation Pharmaceuticals, Inc., priority 2021, published 2024)
